According to patent publication US11230535B2, “CFTR regulators and methods of use thereof” (THE REGENTS OF THE UNIVERSITY OF CALIFORNIA, priority 2015, dated 2022):
Entries after “also recorded” stand apart in the source; their conditions may differ. Like-named read-outs stand apart in the source and are kept apart here.

Target: human wild-type CFTR (Homo sapiens, UniProt P13569)
Assay: Short-circuit current in FRT cells expressing wild-type human CFTR
Type: cell-based
Parameters: expressed in transfected cells
Description: Short-circuit current was measured in FRT cells stably expressing wild-type human CFTR cultured on porous filters as described. The basolateral solution contained 130 mM NaCl, 2.7 mM KCl, 1.5 mM KH2PO4, 1 mM CaCl2, 0.5 mM MgCl2, 10 mM glucose, and 10 mM Na-HEPES (pH 7.3, 37° C.). In the apical solution 65 mM NaCl was replaced by Na gluconate, and CaCl2 was increased to 2 mM, and the basolateral membrane was permeabilized with 250 μg/ml amphotericin B. Short-circuit current was measured in freshly harvested adult mouse colon at 37° C. using symmetrical Krebs-bicarbonate buffer.
(§1) Fischer rat thyroid (FRT) cells stably expressing wild-type human CFTR were cultured on Snapwell inserts (Corning Costar, Corning N.Y., USA) for short-circuit current (Isc) measurements. After 6-9 days in culture, when the transepithelial resistance was >1000 Ω/cm^2, the inserts were mounted in an Ussing chamber system (World Precision Instruments, Sarasota, Fla., USA). The basolateral solution contained 130 mM NaCl, 2.7 mM KCl, 1.5 mM KH2PO4, 1 mM CaCl2, 0.5 mM MgCl2, 10 mM glucose, and 10 mM Na-HEPES (pH 7.3). In the apical bathing solution, 65 mM NaCl was replaced by Na gluconate, and CaCl2 was increased to 2 mM. Both solutions were bubbled with air and maintained at 37° C. The basolateral membrane was permeabilized with 250 μg/ml amphotericin B (26, 27). Hemichambers were connected to a DVC-1000 voltage clamp via Ag/AgCl electrodes and 3 M KCl agar bridges for Isc recording.
Short-circuit current measurement. Short-circuit current was measured in FRT cells stably expressing wild-type human CFTR cultured on porous filters as described. The basolateral solution contained 130 mM NaCl, 2.7 mM KCl, 1.5 mM KH2PO4, 1 mM CaCl2, 0.5 mM MgCl2, 10 mM glucose, and 10 mM Na-HEPES (pH 7.3, 37° C.). In the apical solution 65 mM NaCl was replaced by Na gluconate, and CaCl2 was increased to 2 mM, and the basolateral membrane was permeabilized with 250 μg/ml amphotericin B. Short-circuit current was measured in freshly harvested adult mouse colon at 37° C. using symmetrical Krebs-bicarbonate buffer.
as §1, with “Short-circuit current. Fischer” for “Fischer”
Short-circuit current measurement. Short-circuit current measurements were done as described. Briefly, Snapwell (Corning Costar, Corning, N.Y.) inserts containing CFTR-expressing FRT cells or human bronchial epithelial cells were mounted in Ussing chambers (Physiological Instruments, San Diego, Calif.). For FRT cells the hemichambers were filled with 5 ml of HCO3^−-buffered solution (basolateral) and half-Cl^− solution (apical), and the basolateral membrane was permeabilized with 250 μg/ml amphotericin B. Symmetrical HCO3^−-buffered solutions were used for human bronchial epithelial cells. Solutions were bubbled with 95% O2/5% CO2 and maintained at 37° C., and short-circuit current was measured on a DVC-1000 voltage clamp (World Precision Instruments Inc., Sarasota, Fla.) using Ag/AgCl electrodes and 3 M KCl agar bridges.

[1] = FRT cells expressing human wild-type CFTR
[2] = FRT cells expressing human wild-type CFTR, read-out: EC50 for CFTR activation (short-circuit current)

human wild-type CFTR, sequence (P13569 whole entry): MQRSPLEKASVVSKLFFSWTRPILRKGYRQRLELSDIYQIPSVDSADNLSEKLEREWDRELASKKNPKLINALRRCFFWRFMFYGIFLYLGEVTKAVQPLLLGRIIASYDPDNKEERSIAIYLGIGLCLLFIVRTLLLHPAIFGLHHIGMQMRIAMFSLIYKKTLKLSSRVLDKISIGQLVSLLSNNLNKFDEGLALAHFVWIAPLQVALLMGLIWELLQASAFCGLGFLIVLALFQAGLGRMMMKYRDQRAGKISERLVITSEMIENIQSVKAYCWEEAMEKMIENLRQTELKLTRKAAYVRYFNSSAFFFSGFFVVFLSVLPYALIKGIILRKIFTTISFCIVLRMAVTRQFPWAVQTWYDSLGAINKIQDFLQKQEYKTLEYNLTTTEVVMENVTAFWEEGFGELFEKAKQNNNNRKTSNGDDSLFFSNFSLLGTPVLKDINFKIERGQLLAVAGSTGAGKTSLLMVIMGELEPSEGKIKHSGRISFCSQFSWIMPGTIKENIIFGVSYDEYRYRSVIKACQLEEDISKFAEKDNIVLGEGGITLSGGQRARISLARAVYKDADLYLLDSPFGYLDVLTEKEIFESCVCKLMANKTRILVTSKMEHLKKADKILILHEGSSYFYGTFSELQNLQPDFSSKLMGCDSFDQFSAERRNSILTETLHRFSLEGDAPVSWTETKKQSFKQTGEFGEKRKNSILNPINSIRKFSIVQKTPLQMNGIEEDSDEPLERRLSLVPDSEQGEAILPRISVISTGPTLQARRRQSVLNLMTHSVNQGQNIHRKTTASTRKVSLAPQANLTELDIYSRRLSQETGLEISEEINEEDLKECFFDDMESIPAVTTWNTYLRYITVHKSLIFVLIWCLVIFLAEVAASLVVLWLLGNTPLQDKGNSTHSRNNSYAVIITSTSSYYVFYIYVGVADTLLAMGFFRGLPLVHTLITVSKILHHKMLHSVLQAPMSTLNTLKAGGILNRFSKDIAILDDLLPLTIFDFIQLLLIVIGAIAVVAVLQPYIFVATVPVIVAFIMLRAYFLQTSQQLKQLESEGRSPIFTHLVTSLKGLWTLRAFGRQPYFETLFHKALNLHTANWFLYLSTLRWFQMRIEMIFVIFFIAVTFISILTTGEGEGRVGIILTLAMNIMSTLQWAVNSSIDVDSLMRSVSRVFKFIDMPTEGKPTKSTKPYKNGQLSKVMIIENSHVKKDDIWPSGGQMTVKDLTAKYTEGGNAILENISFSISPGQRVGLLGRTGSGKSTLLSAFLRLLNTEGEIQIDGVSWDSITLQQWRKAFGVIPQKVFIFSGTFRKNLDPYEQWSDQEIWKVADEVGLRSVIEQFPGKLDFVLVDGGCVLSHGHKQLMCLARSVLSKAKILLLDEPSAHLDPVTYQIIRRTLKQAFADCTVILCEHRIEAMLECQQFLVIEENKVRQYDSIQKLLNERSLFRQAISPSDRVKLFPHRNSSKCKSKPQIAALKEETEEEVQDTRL

| Structure (SMILES) | CFTR activation (short-circuit current), in words [1] | EC50 [2] [nM] | activation of CFTR at 3 μM (3 μM, wild-type CFTR, FRT cells) | CFTR activation, Vmax (100% = 20 μM forskolin) [% Vmax] | EC50 [nM] |
| --- | --- | --- | --- | --- | --- |
| CCN(CC)c1nc(Nc2ccc3ncsc3c2)nc(OC(C(F)(F)F)C(F)(F)F)n1 [6k, N′-(1,3-Benzothiazol-6-yl)-N,N-diethyl-6-[(1,1,1,3,3,3-hexafluoropropan-2-yl)oxy]-1,3,5-triazine-2,4-diamine] | full CFTR activation | 30 | – | – | – |
| Nc1ccc([N+](=O)[O-])cc1-c1nc2ccccc2n(Cc2ccccc2)c1=O [CFTRact-J027, 3-(2-amino-5-nitrophenyl)-1-benzylquinoxalin-2(1H)-one] | fully activated CFTR chloride conductance | – | nearly full activation | – | – |
| CCN(CC)c1nc(Nc2ccccc2)nc(OC(C(F)(F)F)C(F)(F)F)n1 [CFTRact-K089, N,N-Diethyl-6-[(1,1,1,3,3,3-hexafluoropropan-2-yl)oxy]-N′-phenyl-1,3,5-triazine-2,4-diamine] | fully activated CFTR | ~250 | – | ~50 | – |
| CC(C)(C)c1cc(C(C)(C)C)c(NC(=O)c2c[nH]c3ccccc3c2=O)cc1O [VX-770, reference compound] | relatively little activity; also recorded: relatively weak activity | – | – | – | – |
| CNc1nc(Nc2ccccc2)nc(OCC(F)(F)C(F)F)n1 [compound 12, N-methyl-N′-phenyl-6-(2,2,3,3-tetrafluoropropoxy)-1,3,5-triazine-2,4-diamine] | fully activated CFTR chloride conductance; also recorded: full CFTR activation | 31 | – | – | ~30 |
